Results taken from patent EP3907227A1, “TRILOBINE DERIVATIVES AND THEIR USE THEREOF IN THE TREATMENT OF MALARIA” (Institut Pasteur, priority 2020, dated 2021).
Like-named read-outs stand apart in the source and are kept apart here.

Columns and labels:
[1] = system: P. falciparum NF54 (drug-sensitive line); assay: Inhibition of proliferation of asynchronous asexual cultures (SYBR Green I based assay, 72h); assay type: cell-based; conditions: for activity at 5 µM: first screen at 5µM in duplicate, 72h, NF54, read-out: % survival @5uM
Procedure: Compounds were provided at a concentration of 10 mM in DMSO.
P. falciparum parasite are cultured using standard protocol (Trager and Jensen, Science 1976, 193(4254), 673-675). Briefly, parasites are cultured at 4% hematocrit (O+ human blood, Etablissement Français du Sang, France) in RPMI1640 complemented with 0.1% Albumax I, HEPES buffer, hypoxanthine, and gentamycin. They are incubated at 37°C under an atmosphere of 5% CO2 and 5% O2.
Compounds of the invention were assayed for a first screen at 5µM in duplicate against asynchronous asexual cultures of P. falciparum NF54 (drug-sensitive line) containing mostly rings (2% hematocrit. 0.5% starting parasitemia). Plates were incubated for 72h at 37°C under a reduced oxygen atmosphere. Parasite growth was assessed using the SYBR Green I based assay.
IC50 were determined using Graphpad Prism 6 software. Dihydroartemisinin (starting concentration 50nM) and DMSO were used as positive and negative controls.

Lab. Strain 3D7 = assay: Inhibition of proliferation, asynchronous asexual stages, SYBR-green assay, laboratory strain; assay type: cell-based, P. falciparum; conditions: Plasmodium falciparum, read-out: IC50 nM Lab. Strain 3D7 mean*
Procedure: (§1) Compounds 63 and 84 were evaluated regarding the inhibition of the proliferation of multi-resistant field isolates adapted to culture. A panel of four Cambodian strains bearing different molecular markers of resistance were selected: 3D7: Laboratory strain, drug-sensitive, 5150: Cambodian isolate resistant to Chloroquine and Pyrimethamine, 6591: Cambodian isolate resistant to Chloroquine, Pyrimethamine, 5248: Cambodian isolate resistant to Chloroquine, Pyrimethamine, Mefloquine and Artemisinin, 6320: Cambodian isolate resistant to Chloroquine, Pyrimethamine, Piperaquine and Artemisinin.
(§2) IC50 were obtained against asynchronous asexual stages using SYBR-green assay after 72h of incubation with a serial dilution of the compounds. Data represents the mean and SD of 3 independent experiments ran in triplicates. Table 2 illustrates mean IC50 values and their standard deviation in nanomolar.

Strain 5248 = assay: Inhibition of proliferation of multi-resistant field isolates, asynchronous asexual stages, SYBR-green assay; assay type: cell-based, P. falciparum; conditions: Plasmodium falciparum, read-out: IC50 nM Strain 5248 mean*
Procedure: as §1, §2

Strain 5150 = assay: as above; assay type: cell-based, P. falciparum; conditions: Plasmodium falciparum, read-out: IC50 nM Strain 5150 mean*
Procedure: as §1, §2

Strain 6591 = assay: as above; assay type: cell-based, P. falciparum; conditions: Plasmodium falciparum, read-out: IC50 nM Strain 6591 mean*
Procedure: as §1, §2

Strain 6320 = assay: as above; assay type: cell-based, P. falciparum; conditions: Plasmodium falciparum, read-out: IC50 nM Strain 6320 mean*
Procedure: as §1, §2

Parasites = assay: Parasite reduction rate (time needed to kill the parasites); assay type: cell-based; conditions: survival curves, duration of treatment versus log viable parasites, Figure 3
Procedure: Parasites are incubated (see for example Sanz et al. PLoS ONE 7, e30949 (2012)) with a compound of the invention (or a reference) for different time-windows, washed, and diluted serially in 96-well plates in fresh red blood cells. Parasites are kept in culture for 3 to 4 weeks, when growth is assessed to evaluate the number of parasites that survive-correlated to the number of wells where growth is found. Survival curves are obtained by plotting the duration of treatment versus the log of the number of viable parasites (figure 3).

[2] = Plasmodium falciparum, NF54, 72 h, SYBR Green I, read-out: Malaria CI50
[3] = Plasmodium falciparum, NF54, 72h, SYBR Green I, read-out: Malaria CI50

| SMILES | IC50 [1, 2] [nM] | activity at 5 µM ([1]; Plasmodium falciparum) [%] | further results |
| --- | --- | --- | --- |
| COc1ccc2cc1Oc1ccc(cc1)CC1c3c(cc(OC)c4c3Oc3cc5c(cc3O4)CCN(C)C5C2)CCN1C(=O)NCc1ccccc1 (stereo not drawn) [Compound 28] | 504 ± 134 | 14.4 | – |
| CN1CCc2cc3c4cc2C1Cc1ccc(O)c(c1)Oc1ccc(cc1)CC1c2c(cc(O)c(c2O4)O3)CCN1C (stereo not drawn) [Compound 110] | – | – | IC50 [1, 3]: 146 ± 39 nM |
| CCN(CC)CCCC(C)Nc1ccnc2cc(Cl)ccc12 (stereo not drawn) [Chloroquine] | – | – | IC50 (Lab. Strain 3D7; 3D7, 72 h): 13 nM; IC50 (Strain 5248; 72 h): 98 nM; IC50 (Strain 5150; 72 h): 55 nM; IC50 (Strain 6591; 72 h): 64 nM; IC50 (Strain 6320; 72 h): 109 nM |
| COc1ccc2cc1Oc1ccc(cc1)CC1c3c(cc(OC)c4c3Oc3cc5c(cc3O4)CCN(C(=O)Nc3cccnc3)C5C2)CCN1C (stereo not drawn) [Compound 27] | 383 ± 173 | 12.7 | – |
| CCN(CC)CCCNC(=O)N1CCc2cc3c4cc2C1Cc1ccc(OC)c(c1)Oc1ccc(cc1)CC1c2c(cc(OC)c(c2O4)O3)CCN1C(=O)NCCCN(CC)CC (stereo not drawn) [Compound 87] | 441 ± 67 | 11.3 | – |
| CCc1nc(N)nc(N)c1-c1ccc(Cl)cc1 [Pyrimethamine] | – | – | IC50 (Lab. Strain 3D7; 3D7, 72h, laboratory strain, drug-sensitive, mean of three replicates): 30 nM; IC50 (Strain 5248; 72h, Cambodian isolate resistant to Chloroquine, Pyrimethamine, Mefloquine and Artemisinin, mean of three replicates): > 5000 nM; IC50 (Strain 5150; 72h, Cambodian isolate resistant to Chloroquine and Pyrimethamine, mean of three replicates): > 5000 nM; IC50 (Strain 6591; 72h, Cambodian isolate resistant to Chloroquine, Pyrimethamine, mean of three replicates): > 5000 nM; IC50 (Strain 6320; 72h, Cambodian isolate resistant to Chloroquine, Pyrimethamine, Piperaquine and Artemisinin, mean of three replicates): > 5000 nM |
| COc1ccc2cc1Oc1ccc(cc1)CC1c3c(cc(OC)c4c3Oc3cc5c(cc3O4)CCN(CCOCCOCCO)C5C2)CCN1C (stereo not drawn) [Compound 43] | 438 ± 95 | 13.3 | – |
| COc1ccc2cc1Oc1ccc(cc1)C[C@H]1c3c(cc(OC)c4c3Oc3cc5c(cc3O4)CCN(C)[C@H]5C2)CCN1C [Isotrilobine, reference compound] | – | – | IC50 ([1]; Plasmodium falciparum, NF54, 72 h, same conditions as Table 1 (NF54, 72h), read-out: mean IC50 +/- SD): 1780 nM |
| COc1ccc2cc1Oc1ccc(cc1)CC1c3c(cc(OC)c4c3Oc3cc5c(cc3O4)CCN(C)C5C2)CCN1CCOCCOCCO (stereo not drawn) [Compound 42] | 437 ± 83 | 12.9 | – |
| CN1CCc2cc3c4cc2C1Cc1ccc(O)c(c1)Oc1ccc(cc1)CC1NCCc2cc(O)c(c(c21)O4)O3 (stereo not drawn) [Compound 122] | – | – | IC50 [1, 3]: 248 ± 58 nM |
| COc1ccc2cc1Oc1ccc(cc1)C[C@@H]1NCCc3cc(OC)c4c(c31)Oc1cc3c(cc1O4)CCN[C@H]3C2 [Nortrilobine, reference compound] | – | – | IC50 ([1]; same conditions as Table 1 (NF54, 72h), read-out: mean IC50 +/- SD): 1220 ± 130 nM |
| CCN(CC)CCCNC(=O)N1CCc2cc(OC)c3c4c2C1Cc1ccc(cc1)Oc1cc(ccc1OC)CC1c2cc(c(cc2CCN1C)O3)O4 (stereo not drawn) [Compound 89] | 428 ± 77 | 14.4 | – |
| Oc1ccc2cc1Oc1ccc(cc1)CC1NCCc3cc(O)c4c(c31)Oc1cc3c(cc1O4)CCNC3C2 (stereo not drawn) [Compound 121] | – | – | IC50 [1, 3]: 115 ± 55 nM; Speed of action (parasite reduction rate) (Parasites): act as fast as dihydroartemisinin (DHA) |
| Clc1ccc2c(N3CCN(CCCN4CCN(c5ccnc6cc(Cl)ccc56)CC4)CC3)ccnc2c1 [Piperaquine] | – | – | IC50 (Lab. Strain 3D7; 3D7, 72 h): 41 nM; IC50 (Strain 5248; 72 h): 33 nM; IC50 (Strain 5150; 72 h): 26 nM; IC50 (Strain 6591; 72 h): 34 nM; IC50 (Strain 6320; 72 h): > 200 nM |

Further lines, with some results ahead:

| IC50 [1, 2] [nM] | SMILES | activity at 5 µM ([1]; Plasmodium falciparum) [%] | further results |
| --- | --- | --- | --- |
| 352 ± 54 | COc1cc2c3c4c1Oc1cc5c(cc1O4)C(Cc1ccc(OCCC4CCCN4C)c(c1)Oc1ccc(cc1)CC3N(C)CC2)N(C)CC5 (stereo not drawn) [Compound 75] | 14.9 | – |
| 283 ± 155 | CN(C)Cc1cc2cc(c1O)Oc1ccc(cc1)CC1c3c(c(CN(C)C)c(O)c4c3Oc3cc5c(cc3O4)CCN(C)C5C2)CCN1C (stereo not drawn) [Compound 123] | – | – |
| 189 | COc1cc2c3c4c1Oc1cc5c(cc1O4)C(Cc1ccc(OCCCN4CCN(C)CC4)c(c1)Oc1ccc(cc1)CC3N(C)CC2)N(C)CC5 (stereo not drawn) [Compound 68] | 14.8 | – |
| 195 ± 55 | COc1ccc2cc1Oc1ccc(cc1)CC1c3c(cc(OC)c4c3Oc3cc5c(cc3O4)CCN(C)C5C2)CCN1CC(O)CO (stereo not drawn) [Compound 48] | 11.8 | – |
| 299 ± 25 | COc1cc2c3c4c1Oc1cc5c(cc1O4)C(Cc1ccc(OCC4CO4)c(c1)Oc1ccc(cc1)CC3N(C)CC2)N(C)CC5 (stereo not drawn) [Compound 73] | 15.8 | – |
| 169 ± 10 | COc1ccc2cc1Oc1ccc(cc1)CC1c3c(cc(OC)c4c3Oc3cc5c(cc3O4)CCN(C)C5C2)CCN1CCCN(C)C (stereo not drawn) [Compound 46] | 14.2 | – |
| 153 ± 58 | CN(C)CCCOc1ccc2cc1Oc1ccc(cc1)CC1c3c(cc(O)c4c3Oc3cc5c(cc3O4)CCN(C)C5C2)CCN1C (stereo not drawn) [Compound 113] | – | – |
| 227 ± 59 | COc1ccc2cc1Oc1ccc(cc1)CC1c3c(cc(OC)c4c3Oc3cc5c(cc3O4)CCN(C(=O)NCCN3CCN(C)CC3)C5C2)CCN1C (stereo not drawn) [Compound 60] | 15.4 | – |
| 331 ± 29 | CCN(CC)CCOc1ccc2cc1Oc1ccc(cc1)CC1c3c(cc(OC)c4c3Oc3cc5c(cc3O4)CCN(C)C5C2)CCN1C (stereo not drawn) [Compound 78] | 12.6 | – |
| 297 ± 42 | COc1cc2c3c4c1Oc1cc5c(cc1O4)C(Cc1ccc(OC4CCCN(C)CC4)c(c1)Oc1ccc(cc1)CC3N(C)CC2)N(C)CC5 (stereo not drawn) [Compound 74] | 14.7 | – |
| 297 ± 31 | CCN(CC)CCCNC(=O)N1CCc2cc3c4cc2C1Cc1ccc(OC)c(c1)Oc1ccc(cc1)CC1c2c(cc(OC)c(c2O4)O3)CCN1C (stereo not drawn) [Compound 88] | 14.7 | – |
| 151 ± 21 | COc1ccc2cc1Oc1ccc(cc1)CC1c3c(cc(OC)c4c3Oc3cc5c(cc3O4)CCN(C(=O)NCc3ccncc3)C5C2)CCN1C (stereo not drawn) [Compound 31] | 14.8 | – |
| 223 ± 58 | COc1ccc2cc1Oc1ccc(cc1)CC1c3c(cc(OC)c4c3Oc3cc5c(cc3O4)CCN(C(=O)Nc3ccncc3)C5C2)CCN1C (stereo not drawn) [Compound 23] | 13.4 | – |
| 260 ± 34 | COc1cc2c3c4c1Oc1cc5c(cc1O4)C(Cc1ccc(OCCN(C)C)c(c1)Oc1ccc(cc1)CC3N(C)CC2)N(C)CC5 (stereo not drawn) [Compound 82] | 13.4 | – |
| 263 ± 50 | COc1cc2c3c4c1Oc1cc5c(cc1O4)C(Cc1ccc(OCCCN(C)C)c(c1)Oc1ccc(cc1)CC3NCC2)N(C)CC5 (stereo not drawn) [Compound 116] | – | – |
